What was measured:
iNKT cell = assay: Activation of NKT cells in vivo, serum IL-4 and IFN-γ by ELISA; parameters: species or system mice; details: 1 μg intravenous injection; for IL-4 (serum): 2 hours; for INFγ (serum): 18 hours
Method: (§1) This example illustrates the in vivo effect of threitolceramide-containing liposomes on dendritic cell (DC) maturation, as measured by CD86 and CD40 expression, and iNKT cell activation, as measured by IL-4 and IFNγ release.
(§2) WT (n=3) and CD1d^−/− (n=1) mice were administered 1 μg of liposomes (EPC:DDAB:TC(10); EPC:EPG:TC(2); EPC:EPG:TC(5); EPC:EPG:TC(10) and EPC:CHOL:TC(10)) or control liposome (EPC:EPG), soluble threitolceramide or soluble α-GalCer by intravenous injection.
Serums were obtained by tail venipuncture 2 and 18 hours post-injection to detect IL-4 and IFN-γ levels by ELISA.

dendritic cell (DC) = assay: DC maturation in vivo, CD86 and CD40 expression on spleen DC by flow cytometry; parameters: species or system mice; details: median fluorescent intensity, spleen DC 18 hours after 1 μg intravenous injection
Method: as §1, §2
18 hours post-injection, the spleens of the mice were harvested and the phenotype of DC maturation was examined by flow cytometry as determined by the median fluorescent intensity (MFI) of CD86 and CD40 expression.

[1] = test system: murine invariant natural killer cells (iNKT); assay: Activation of iNKT cells in splenocyte culture, IFNγ ELISA; assay type: cell-based, mice; details: splenocytes cultured 72 hours with material (titrating amounts 10 μg/ml, 1 μg/ml, 100 ng/ml; concentration of the tabulated values not stated), supernatant ELISA
Method: This Example illustrates ability of the threitolceramide-containing liposomes to activate murine invariant natural killer cells (iNKT) and human cells, as measured by IFNγ release.
Splenocytes were prepared from either wild type (WT) or CD1d^−/− (NKT cell deficient) mice and cultured in the presence of titrating amounts (10 μg/ml, 1 μg/ml, 100 ng/ml) of non-glycosidic ceramide containing liposomes (EPC:DDAB:TC(10); EPC:EPG:TC(2); EPC:EPG:TC(5); EPC:EPG:TC(10) and EPC:CHOL:TC(10)), control liposome (EPC:EPG), soluble threitolceramide or soluble α-GalCer for 72 hours. Soluble threitolceramide and soluble α-GalCer were prepared by dissolution in a chloroform/methanol/water solution (10:10:3) at 10 mg/mL. The resulting solution was diluted to a final volume of about 200 μg/mL using vehicle solution comprised of NaCl (about 150 mM) and polyoxyethylene (20) sorbitan monolaurate (i.e., Tween 20, 0.5%). Supernatants were removed from cultures and the amount of IFNγ produced by the cells was quantified by ELISA. Briefly, ELISA plates were coated with 1D1K antibody (Mabtech) and left overnight at 4° C. The plates were washed with 0.05% Tween 20 in PBS (v/v). To eliminate any non-specific antigen binding, the plates were coated (i.e. blocked) with 200 μL of 10% FCS in PBS (v/v) and incubated for 2 h at 37° C. […]

Question: How did the “IL-4 (serum)” value (iNKT cell) turn out when `CCCCCCCCCCCCCCCCCCCCCCCCCC(=O)N[C@@H](COC[C@H](O)[C@@H](O)CO)[C@H](O)[C@H](O)CCCCCCCCCCCCCC` [Soluble TC, threitolceramide] was run?
Answer: The value was 0.12 ng/mL.

Question: And the “INFγ (serum)” value (iNKT cell)?
Answer: Its value is 0.99 ng/mL.

Question: And the “CD40 (DC maturation) Median” value (dendritic cell (DC))?
Answer: The value was 28.9.

Question: And the “CD86 (DC maturation) Median” value (dendritic cell (DC))?
Answer: The value was 60.1.

Question: What about the “IFNγ” value [1] of the same molecule?
Answer: Its value is 3.77 ng/mL.

Question: Which results are given for `CCCCCCCCCCCCCCCCCCCCCCCCCC(=O)N[C@@H](CO[C@H]1O[C@H](CO)[C@H](O)[C@H](O)[C@H]1O)[C@H](O)[C@H](O)CCCCCCCCCCCCCC` [Soluble α-GalCer, α-Galactosylceramide]?
Answer: IL-4 (serum) (iNKT cell): 0.83 ng/mL; INFγ (serum) (iNKT cell): 8.47 ng/mL; CD40 (DC maturation) Median (dendritic cell (DC)): 39.1; CD86 (DC maturation) Median (dendritic cell (DC)): 91.6; IFNγ [1]: 9.21 ng/mL

From patent US10039715B2, “Liposomal formulation of nonglycosidic ceramides and uses thereof” (LUDWIG INSTITUTE FOR CANCER RESEARCH LTD., priority 2010, dated 2018)
